Assay results from patent publication US8748626B2, “Oxazole and thiazole compounds as KSP inhibitors” (Novartis AG, priority 2010, dated 2014).

Columns and labels:
[1] = target: motor domain of human KSP (Eg 5, KNSL1) (Homo sapiens (Human), UniProt P52732); experiment: Assay for determining KSP activity (microtubule-stimulated ATPase, Biomol Green); assay type: biochemical; details: KSP motor domain 45 nM, microtubules 35 μg/mL, ATP, 1 hour RT, absorbance 630 nm; read-out: Biological Activity IC50
Description: This example provides a representative in vitro assay for determining KSP activity in vitro. Purified microtubules obtained from bovine brain were purchased from Cytoskeleton Inc. (Denver, Colo., USA). The motor domain of human KSP (Eg 5, KNSL1) was cloned, expressed, and purified to greater than 95% homogeneity. Biomol Green was purchased from Affinity Research Products Ltd. (Matford Court, Exeter, Devon, United Kingdom). Microtubules and KSP motor protein (i.e., the KSP motor domain) were diluted in assay buffer (20 mM Tris-HCl (pH 7.5), 1 mM MgCl2, 10 mM DTT and 0.25 mg/mL BSA) to a final concentration of 35 μg/mL microtubules and 45 nM KSP. The microtubule/KSP mixture was then pre-incubated at 37° C. for 10 min to promote the binding of KSP to microtubules.
To each well of the testing plate (384-well plate) containing 1.25 μL of inhibitor or test compound in DMSO (or DMSO only in the case of controls) were added 25 μL of ATP solution (ATP diluted to a concentration of 300 μM in assay buffer) and 25 μL of the above-described microtubule/KSP solution. The plates were incubated at RT for 1 hour. Following incubation, 65 μL of Biomol Green (a malachite green-based dye that detects the release of inorganic phosphate) was added to each well. The plates were incubated for an additional 5-10 minutes then the absorbance at 630 nm was determined using a Victor II plate reader. The amount of absorbance at 630 nm corresponded to the amount of KSP activity in the samples. The IC50 of each inhibitor or test compound was then determined based on the decrease in absorbance at 630 nm at each concentration, via nonlinear regression using either XLFit for Excel or Prism data analysis software by GraphPad Software Inc.

[2] = system: tumor cell lines; experiment: Inhibition of cellular proliferation in tumor cell lines (CellTiter-Glo); assay type: cell-based; details: 50% growth inhibition at 72 hours of continuous compound exposure; cell line not specified; read-out: Biological Activity GI50
Experimental: Cells are plated in 96-well plates at densities of about 500 cells per well of a 96-well plate and are allowed to grow for 24 hours. The cells are then treated with various concentrations of compounds for 72 hours. Then, 100 μl of CellTiter-Glo® solution are added. The CellTiter-Glo® assay measures the amount of ATP present in the well after lysing the cells; the ATP released is used in an enzymatic reaction including the enzyme Luciferease and its substrate Luciferin. The amount of light emitted is proportional to the amount of ATP, which in turn is proportional to the number of live cells in the well. (see Promega product catalog #G7573, CellTiter-Glo® Luminescent Cell Viability Assay). The cells are then incubated in the dark for 30 minutes. The amount of luminescence is determined for each well using a Wallac Trilux plate reader, which correlates with the number of cells per well. The number of viable cells in the wells that receive only DMSO (0.5%) serve as an indication of 0°/a inhibition, while wells without cells serve as 100% inhibition of cell growth. The compound concentration that results in a 50% growth inhibition (GI50) is determined graphically from sigmoidal dose-response curves of log-transformed dose values versus cell counts (percent of control) at 72 hours of continuous compound exposure.
The cell lines used are listed below.
The cell proliferation assay is performed as described above. • Cancer Cell Lines • Colo 205—colon carcinoma • RPMI 1640+10% FBS+1% L-glutamine+1% P/S+1% NaPyr.+Hepes+4.5 g/L Glucose+1% NaBicarb. • MDA 435—breast cancer—high met • EMEM+10% FBS+1% P/S+1% L-Glutamine+1% NEAA+1% NaPyr+1% vitamins • HCT-15 and HCT116—colon carcinoma • RPMI 1640+10% FBS+1% L-glutamine+1% P/S • Drug Resistant Cell Lines • KB3.1—[…] epidermal carcinoma; parental cell line • Iscove's+10% FBS+1% L-glutamine+1% P/S • KBV1—p-glycoprotein associated multi-drug resistant cell line • RPMI 1640+10% FBS+1% L-glutamine+1% P/S+0.2 ug/mL Vinblastine • KB85—p-glycoprotein associated multi-drug resistant cell line • DMEM+10% FBS+1% L-glutamine+1% P/S+10 ng/mL Colchicine

motor domain of human KSP (Eg 5, KNSL1), sequence (P52732 18-359): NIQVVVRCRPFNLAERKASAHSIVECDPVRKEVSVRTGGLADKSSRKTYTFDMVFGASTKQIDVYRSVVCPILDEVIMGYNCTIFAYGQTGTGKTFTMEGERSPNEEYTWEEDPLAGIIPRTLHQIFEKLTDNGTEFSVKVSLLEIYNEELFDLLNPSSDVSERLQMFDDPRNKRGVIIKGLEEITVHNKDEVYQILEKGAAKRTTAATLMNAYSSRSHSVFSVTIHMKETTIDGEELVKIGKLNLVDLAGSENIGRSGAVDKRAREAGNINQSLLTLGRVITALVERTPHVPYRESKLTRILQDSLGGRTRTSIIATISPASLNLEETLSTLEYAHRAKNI

Row | Structure (SMILES) | IC50 [1] | GI50 [2]
1 | CC(C)(C)[C@H](c1nc(-c2cc(F)ccc2F)sc1Cc1ccccc1)N(C[C@@H]1CNC[C@@H]1F)C(=O)[C@@H]1CCCO1 [Example 2, (S)-N-((R)-1-(5-benzyl-2-(2,5-difluorophenyl)thiazol-4-yl)-2,2-dimethylpropyl)-N-(((3S,4R)-4-fluoropyrrolidin-3-yl)methyl)tetrahydrofuran-2-carboxamide] | 10 nM | 1.4 nM
2 | C[C@H](O)C(=O)N(C[C@@H]1CNC[C@@H]1F)[C@@H](c1nc(-c2cc(F)ccc2F)oc1Cc1ccccc1)C(C)(C)C [Example 4, (S)-N-((R)-1-(5-benzyl-2-(2,5-difluorophenyl)oxazol-4-yl)-2,2-dimethylpropyl)-N-(((3S,4R)-4-fluoropyrrolidin-3-yl)methyl)-2-hydroxypropanamide] | 7.18 nM | 3.5 nM
3 | C[C@H](O)C(=O)N(C[C@@H]1CNC[C@@H]1F)[C@H](c1nc(-c2cc(F)ccc2F)oc1Cc1ccccc1)C(C)(C)C [Example 6, (S)-N-((S)-1-(5-benzyl-2-(2,5-difluorophenyl)oxazol-4-yl)-2,2-dimethylpropyl)-N-(((3S,4R)-4-fluoropyrrolidin-3-yl)methyl)-2-hydroxypropanamide] | 1000 nM | –
4 | C[C@H](O)C(=O)N(CC[C@H](N)CF)[C@H](c1nc(-c2cc(F)ccc2F)oc1Cc1ccccc1)C(C)(C)C [Example 7, (S)-N-((S)-3-amino-4-fluorobutyl)-N-((S)-1-(5-benzyl-2-(2,5-difluorophenyl)oxazol-4-yl)-2,2-dimethylpropyl)-2-hydroxypropanamide] | 631 nM | –
5 | C[C@H](O)C(=O)N(CC[C@H](N)CF)[C@H](c1nc(-c2cc(F)ccc2F)sc1Cc1ccccc1)C(C)(C)C [Example 8, (S)-N-((S)-3-amino-4-fluorobutyl)-N-((S)-1-(5-benzyl-2-(2,5-difluorophenyl)thiazol-4-yl)-2,2-dimethylpropyl)-2-hydroxypropanamide] | – | 944 nM

Next, values leading:

Row | IC50 [1] | GI50 [2] | Structure (SMILES)
6 | 0.84 nM | 0.18 nM | C[C@H](O)C(=O)N(C[C@@H]1CNC[C@@H]1F)[C@@H](c1nc(-c2cc(F)ccc2F)sc1Cc1ccccc1)C(C)(C)C [Example 1, (S)-N-((R)-1-(5-benzyl-2-(2,5-difluorophenyl)thiazol-4-yl)-2,2-dimethylpropyl)-N-(((3S,4R)-4-fluoropyrrolidin-3-yl)methyl)-2-hydroxypropanamide]
7 | 2.6 nM | 2.2 nM | C[C@H](O)C(=O)N(CC[C@H](N)CF)[C@@H](c1nc(-c2cc(F)ccc2F)sc1Cc1ccccc1)C(C)(C)C [Example 3, (S)-N-((S)-3-amino-4-fluorobutyl)-N-((R)-1-(5-benzyl-2-(2,5-difluorophenyl)thiazol-4-yl)-2,2-dimethylpropyl)-2-hydroxypropanamide]
8 | 2.54 nM | 4.82 nM | C[C@H](O)C(=O)N(CC[C@H](N)CF)[C@@H](c1nc(-c2cc(F)ccc2F)oc1Cc1ccccc1)C(C)(C)C [Example 5, (S)-N-((S)-3-amino-4-fluorobutyl)-N-((R)-1-(5-benzyl-2-(2,5-difluorophenyl)oxazol-4-yl)-2,2-dimethylpropyl)-2-hydroxypropanamide]
